Assay results from patent US11278561B2, “Combination treatment for hematological cancers” (Geron Corporation, priority 2016, dated 2022).

Key:
[1] = tested on: hTERT; test: hTERT transcription levels by RT-qPCR in KG-1; format: cell-based, human; settings: 20 nM ABT-199, at either time point (48 or 96 hours)
Method: Samples from cell experiments (and single agent controls) were collected for molecular analyses to assess combination effects contributing to potential mechanisms of action. […] Nucleic acids were purified by first lysing cells with 350 μL of RLT Buffer (Qiagen catalog #1030963) supplemented with 2-mercaptoethanol (Sigma catalog #63689-100ML-F). RNA was purified with the AllPrep RNA/DNA Mini Kit (Qiagen catalog #80204) and reverse transcribed to cDNA using a High Capacity cDNA kit (ThermoFisher catalog #4368814) and pre-amplified prior to analysis with TaqMan PreAmp Master Mix (ThermoFisher catalog #4384557B). Products were analyzed using an in-house developed Taq-Man RT-qPCR assay to measure hTERT transcription levels (TaqMan Universal PCR Master Mix—ThermoFisher catalog #4304437; primer and probe sequences below) using a ViiA7 Real-Time PCR system from ThermoFisher: […]

[2] = tested on: CD45+ leukocytes from AML patient PBMCs; test: ex vivo viability of AML patient PBMCs, CD45+ leukocytes; format: cell-based, human; settings: 16-hour and 40-hour exposure; imetelstat sodium 25, 50 μM and/or venetoclax 20, 100 nM; mean of four patients
Method: AML cell lines (see Example 1) and AML patient peripheral blood mononuclear cell (“PBMC”) samples, which were obtained from AML patient whole blood after Ficoll purification, were treated with imetelstat sodium or venetoclax alone, or in combination, and viable and apoptotic populations of cells were evaluated by flow cytometry. Telomerase activity, hTERT expression and mitochondrial dysfunction were investigated for mechanism of action. […] Apoptosis was measured via flow cytometry staining for Annexin V and propidium iodide. Unstained (i.e. double negative) cells constitute viable cells remaining after treatment.
Specifically, whole blood from AML patients (n=4) was purified using Ficoll-Paque Plus (GE Healthcare catalog #17-1440-03) to purify PBMCs. […]
After 16- and 40-hours of treatment, cells were measured for healthy, early apoptotic and apoptotic populations with an Annexin V (interior cell membrane stain) plus propidium iodide (PI, DNA binding dye) flow cytometry assay kit (BioLegend catalog #640914) as described in the Example 1. […] Means and standard deviations were determined for the four patients for CD45^+ (leukocytes) and CD45^+/CD34^+ (leukemic stem cells) populations.

[3] = tested on: MOLM-13 cells; test: Annexin V / Propidium Iodide flow cytometry apoptosis assay in MOLM-13; format: cell-based; parameters: key to Excess over HSA / Excess over BLISS: excess = combination minus HSA/Bliss expected, in % apoptotic cells; settings: for Excess over BLISS / Excess over HSA: imetelstat sodium μM: r7 50, r8 25, r9 10, r10 0
Method: AML tumor cells KG-1 (ATCC #CCL-246) and MOLM-13 (DSMZ #ACC554) were plated at a density of ˜20,000 cells per well on 96-well polystyrene U-bottom tissue culture plates (Corning catalog #353777) in RPMI-1640 (ThermoFisher catalog #11875-085) supplemented with 10% fetal bovine serum (ThermoFisher catalog #16140-089) and 1% penicillin/streptomycin antibiotic cocktail (ThermoFisher catalog 15140-122) and grown in a 37° C. incubator under humidified 5% CO2 atmosphere.
At 48 and 96 hours, cells were measured for healthy, early apoptotic and apoptotic populations with an Annexin V (interior cell membrane stain) plus Propidium Iodide (PI, DNA binding dye) flow cytometry assay kit (BioLegend catalog 640914). Annexin V detects the externalization of phosphatidylserine in apoptotic cells using recombinant annexin V conjugated to green-fluorescent FITC dye and dead cells using Propidium iodide (PI). Propidium iodide stains necrotic cells with red fluorescence. After treatment with both probes, early apoptotic cells show green fluorescence, apoptotic (dead) cells show red and green fluorescence, and live cells show little or no fluorescence. […] Cells were stained for 30 minutes at 4° C. in the dark, followed by 3× washes with PBS and suspension in FACs Stain Buffer (BD catalog 554657) prior to interrogation on a BD FACs Canto flow cytometer for forward scatter, side scatter, FITC, and PE channels. […] The percentage of apoptotic cells (double labeled) was used to calculate combination effects using both the Highest Single Agent (HSA) and Bliss additivity models (J Tang et al. Frontiers in Pharmacology. 2015; 6 (181)).
Using the HSA model, the cytotoxic effect of the combined condition (“C”) was compared to the effect generated by each of the single agent controls (“A” or “B”) for the respective dose in the combination: Excess over HSA=C−A (if A>B) or C−B (if A<B)
The Bliss model performs a similar comparison, but instead of the highest effect of single agent, the Bliss model subtracts from the combination a value equal to the sum of each single agent minus their product: Excess over Bliss=C−[(A+B)−(A*B)]
Treated cells were analyzed by Flow cytometry for Annexin V and Propidium Iodide staining as described previously. Events gated in the apoptotic population (Annexin V+/Propidium Iodide+) were used to determine synergy scores for the combination matrix. Combination data analysis was generated by the Horizon Chalice™ Analyzer Software (Horizon Discovery Group, Cambridge, UK). […] Mismatch and non-complimentary controls were not utilized in this experiment.
Combination conditions undergo isobolar analysis to generate a combination index and graphically represent the behavior of a combination with synergistic pairs falling below the isobologram and antagonistic falling above it (additive combinations would be expected to fall on the line). The Horizon Chalice™ Analyzer Software additionally provides a synergy score, with values greater than 1 indicating synergy.

[4] = MOLM-13, 48 hours, ABT-199 1 nM
[5] = MOLM-13, 48 hours, ABT-199 5 nM
[6] = MOLM-13, 48 hours, ABT-199 20 nM
[7] = MOLM-13, 48 hours, ABT-199 100 nM
[8] = MOLM-13, 48 hours, ABT-199 500 nM
[9] = MOLM-13, 96 hours, ABT-199 1 nM
[10] = MOLM-13, 96 hours, ABT-199 5 nM
[11] = MOLM-13, 96 hours, ABT-199 20 nM
[12] = MOLM-13, 96 hours, ABT-199 100 nM
[13] = MOLM-13, 96 hours, ABT-199 500 nM

SMILES: CC1(C)CCC(CN2CCN(c3ccc(C(=O)NS(=O)(=O)c4ccc(NCC5CCOCC5)c([N+](=O)[O-])c4)c(Oc4cnc5[nH]ccc5c4)c3)CC2)=C(c2ccc(Cl)cc2)C1 [ABT-199, 4-[4-[[2-(4-chlorophenyl)-4,4-dimethylcyclohexen-1-yl]methyl]piperazin-1-yl]-N-[3-nitro-4-(oxan-4-ylmethylamino)phenyl]sulfonyl-2-(1H-pyrrolo [2,3-b]pyridin-5-yloxy)benzamide]
- hTERT RNA expression level, percentage of untreated controls [1]: 90-95%
- viability of CD45+ leukocytes derived from AML patients [2]: only moderately impacted
- Excess over BLISS [3, 4]: 0
- Excess over HSA [3, 4]: 0
- Excess over BLISS [3, 5]: 0
- Excess over HSA [3, 5]: 0
- Excess over BLISS [3, 6]: 0
- Excess over HSA [3, 6]: 0
- % apoptotic cells (double label) [3, 7]: ~19%
- Excess over BLISS [3, 7]: 0
- Excess over HSA [3, 7]: 0
- % apoptotic cells (double label) [3, 8]: ~30%
- Excess over BLISS [3, 8]: 0
- Excess over HSA [3, 8]: 0
- Excess over BLISS [3, 9]: 0
- Excess over HSA [3, 9]: 0
- Excess over BLISS [3, 10]: 0
- Excess over HSA [3, 10]: 0
- Excess over BLISS [3, 11]: 0
- Excess over HSA [3, 11]: 0
- Excess over BLISS [3, 12]: 0
- Excess over HSA [3, 12]: 0
- Excess over BLISS [3, 13]: 0
- Excess over HSA [3, 13]: 0
- cell death ([3]; MOLM-13, 96 hours, ABT-199 at 5, 20, 100 and 500 nM): > 30%
- apoptotic activity ([3]; MOLM-13, after 48 hours, concentrations not given): 30%
